# Counter-ions that a name gives are not always drawn.
# Molecular target: IRAK-4 (Homo sapiens (Human), UniProt Q9NWZ3)
# Experiment: In vitro IRAK-4 kinase assay
# Type: biochemical
# Conditions: purified recombinant IRAK-4, 50 uM ATP, 33P peptide phosphorylation
# Procedure: Purified recombinant IRAK-4 protein was incubated with 250 uM synthetic peptide ([…]) in 30 ul of kinase buffer including (20 mM MOPS pH7.2, 25 mM beta glycerol phosphate, 5 mM EGTA, 1 mM sodium orthovanadate, 1 mM DTT, 50 uM ATP, 20 mM MgCl2, 10 uCi γ-^33P, 0.1% BSA) for the indicated time. For purified recombinant IRAK-1 protein kinase assay, 50 uM ATP was used. A 25 ul aliquot of the reaction mixture was transferred on to p81 phosphocellulose squares (Upstate Biotechnology, Lake Placid, N.Y.). The assay squares were washed three times with 0.75% phosphoric acid and once with acetone. Enzyme activity was measured by determining the bound radioactivity by liquid scintillation counting.
# Sequence of IRAK-4 (Q9NWZ3 whole entry, species assumed): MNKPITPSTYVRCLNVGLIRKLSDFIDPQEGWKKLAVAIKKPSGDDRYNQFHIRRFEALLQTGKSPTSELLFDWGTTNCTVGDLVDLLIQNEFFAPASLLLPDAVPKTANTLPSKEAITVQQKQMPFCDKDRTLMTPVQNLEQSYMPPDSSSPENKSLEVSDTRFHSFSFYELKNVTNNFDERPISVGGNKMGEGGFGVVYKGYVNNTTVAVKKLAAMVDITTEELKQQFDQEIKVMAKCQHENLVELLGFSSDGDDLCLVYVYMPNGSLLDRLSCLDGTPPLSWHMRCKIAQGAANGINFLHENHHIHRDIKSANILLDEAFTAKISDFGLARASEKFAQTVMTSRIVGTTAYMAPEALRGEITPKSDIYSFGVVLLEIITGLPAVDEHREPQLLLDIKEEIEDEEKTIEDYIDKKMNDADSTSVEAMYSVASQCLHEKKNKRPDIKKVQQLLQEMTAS
row,Molecule,IC50 [nM]
1,"2-(cis-2-Amino-cyclohexylamino)-thieno[3,2-d]pyrimidine-7-carboxylic acid quinolin-8-ylamide [Example 22]",28
2,"2-(cis-2-amino-cyclohexylamino)-thieno[3,2-d]pyrimidine-7-carboxylic acid (5,6-dimethoxy-pyridin-2-yl)-amide [Example 27]",31
3,"NCC1CCN(c2ccc(Cl)cc2NC(=O)c2cnn3cccnc23)CC1 [Example 31, Pyrazolo[1,{tildeover (5)}alpha] pyrimidine-3-carboxylic acid [2-(4-aminomethyl-piperidin-1-yl)-5-chloro-phenyl]-amide]",37
4,"COc1cc2ncccc2cc1NC(=O)c1cnn2cccnc12 [Example 33, Pyrazolo[1,{tildeover (5)}alpha] pyrimidine-3-carboxylic acid (7-methoxy-quinolin-6-yl)-amide]",43
5,"O=C(Nc1cc(Cl)ccc1N1CCC(CO)CC1)c1cnn2cccnc12 [Example 42, Pyrazolo[1,5-alpha]pyrimidine-3-carboxylic acid [5-chloro-2-(4-hydroxymethyl-piperidin-1-yl)-phenyl]-amide]",72
6,"O=C1Cc2cc(N3CCCCC3)c(NC(=O)c3cnn4cccnc34)cc2N1 [Example 48, Pyrazolo[1,5-alpha]pyrimidine-3-carboxylic acid (2-oxo-5-piperidin-1-yl-2,3-dihydro-1H-indol-6-yl)-amide]",98
7,"COc1cc2ncccc2cc1NC(=O)c1csc2cnc(NCCCN)nc12 [Example 50, 2-(3-Amino-propylamino)-thieno[3,2-d]pyrimidine-7-carboxylic acid (7-methoxy-quinolin-6-yl)-amide]",101
8,"NC(=O)c1cnc2c(C(=O)Nc3cc(Cl)ccc3OC3CCC(O)CC3)cnn2c1 (stereo not drawn) [Example 52, Pyrazolo[1,5-alpha]pyrimidine-3,6-dicarboxylic acid 6-amide-3-{[5-chloro-2-(4-hydroxy-cyclohexyloxy)-phenyl]-amide}]",107
9,"O=C(Nc1cc2cccnc2cc1OC1CCNCC1)c1csc2cncnc12 [Example 56, Thieno[3,2-d]pyrimidine-7-carboxylic acid [7-(piperidin-4-yloxy)-quinolin-6-yl]-amide hydrochloride]",125

# More lines, in order of falling IC50, values ahead:
row,IC50 [nM],Molecule
1,131,"O=C(Nc1cc2cccnc2cc1OCCCO)c1csc2cncnc12 [Example 58, Thieno[3,2-d]pyrimidine-7-carboxylic acid [7-(3-hydroxy-propoxy)-quinolin-6-yl]-amide]"
2,127,"COc1cc2ncccc2cc1NC(=O)c1csc2cnc(N(CCO)C(C)C)nc12 [Example 57, 2-[(2-Hydroxy-ethyl)-isopropyl-amino]-thieno[3,2-d]pyrimidine-7-carboxylic acid (7-methoxy-quinolin-6-yl)-amide]"
3,81,"NCc1ccc(-c2ccc(Cl)cc2NC(=O)c2cnn3cccnc23)cc1 [Example 46, Pyrazolo[1,{tildeover (5)}alpha] pyrimidine-3-carboxylic acid (4′-aminomethyl-4-chloro-biphenyl-2-yl)-amide]"
4,52,"Cc1cc2cc(-c3ccc(CO)cc3)c(NC(=O)c3cnn4cccnc34)cc2[nH]1 [Example 36, Pyrazolo[1,5-alpha]pyrimidine-3-carboxylic acid [5-(4-hydroxymethyl-phenyl)-2-methyl-1H-indol-6-yl]-amide]"
5,40,"O=C(Nc1cc2cccnc2cc1OC1CCNCC1)c1cnn2cccnc12 [Example 32, Pyrazolo[1,5-alpha]pyrimidine-3-carboxylic acid [7-(piperidin-4-yloxy)-quinolin-6-yl]-amide hydrochloride]"
6,33,CC(O)CCOc1cc2ncccc2cc1NC(=O)c1csc2cncnc12 (centres unmarked) [Example 28]
7,33,COc1cnc2c(C(=O)Nc3cc(Cl)ccc3N3CCC(CO)CC3)cnn2c1 [Example 29]
8,8,"CNCC1CCN(c2ccc(Cl)cc2NC(=O)c2csc3cncnc23)CC1 [Example 8, Thieno[3,2-d]pyrimidine-7-carboxylic acid [5-chloro-2-(4-methylaminomethyl-piperidin-1-yl)-phenyl]-amide]"

# — patent US9255110B2 (Hoffmann-La Roche Inc., priority 2010, dated 2016)
